The text below walks through data of patent US7906522B2, “2-aminoquinazoline derivatives” (Kyowa Hakko Kirin Co., Ltd, priority 2005, dated 2011).

The assay deals with T1, Activated human p38α (Homo sapiens, UniProt Q16539).
T1 construct: purchased Upstate Biotechnology Inc. 14-251
T1 sequence (Q16539 whole entry): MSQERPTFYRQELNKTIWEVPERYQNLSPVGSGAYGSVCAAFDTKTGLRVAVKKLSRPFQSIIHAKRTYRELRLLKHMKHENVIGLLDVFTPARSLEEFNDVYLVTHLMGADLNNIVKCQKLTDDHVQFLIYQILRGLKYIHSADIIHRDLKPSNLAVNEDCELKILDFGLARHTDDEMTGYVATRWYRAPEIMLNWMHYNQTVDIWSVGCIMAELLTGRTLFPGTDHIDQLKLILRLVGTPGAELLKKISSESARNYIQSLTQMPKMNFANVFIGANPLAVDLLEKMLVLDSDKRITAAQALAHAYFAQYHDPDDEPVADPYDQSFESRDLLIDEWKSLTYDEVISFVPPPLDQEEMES
The experiment in a line: p38MAP kinase inhibition test. It counts as biochemical. As to conditions: at a concentration of 1 μmol/L; substrate myelin basic protein, ATP 20 μmol/L, [γ-32P]ATP; read-out: enzyme inhibitory activity. The method, boiled down:
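Phosphorylation of myelin basic protein (20 μg/assay) by the kinase measured via [γ-32P]ATP incorporation at 20 μmol/L ATP, pH 7.2 MOPS buffer, 30° C. for 15 min. Labelled substrate bound to P81 paper, washed, and quantified by scintillation counting; compounds added in DMSO.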
`CC(C)Nc1ncc2cc(-c3ccccc3Cl)c(OCC(C)(C)O)c(C(C)(C)O)c2n1` [Compound 81, 6-(2-Chlorophenyl)-8-(1-hydroxy-1-methylethyl)-7-(2-hydroxy-2-methylpropyloxy)-2-(isopropylamino)quinazoline]: the inhibition at 1 µM is not below 50%.

On to `CC(C)Nc1ncc2cc(-c3ccccc3Cl)c(O)c(-c3ccccc3Cl)c2n1` [Compound 98, 6,8-Di(2-chlorophenyl)-7-hydroxy-2-(isopropylamino)quinazoline], for which the inhibition at 1 µM was not below 50%.

Take `CCCS(=O)(=O)N1CCC(Nc2ncc3cc(-c4ccccc4Cl)c(O)cc3n2)CC1` [Compound 162, 6-(2-Chlorophenyl)-7-hydroxy-2-[1-(1-propylsulfonyl)piperidin-4-ylamino]quinazoline]: the inhibition at 1 µM was not below 50%.

On to `COc1cc2nc(NC3CCOCC3)ncc2cc1-c1cccc(NC(C)=O)c1` [Compound 243, 6-(3-Acetylaminophenyl)-7-methoxy-2-(4-tetrahydropyranylamino)quinazoline], for which the inhibition at 1 µM was not below 50%.

As for `CC(C)Nc1ncc2cc(-c3cccc4ccccc34)c(O)cc2n1` [Compound 326, 7-Hydroxy-2-isopropylamino-6-(naphthalen-1-yl)quinazoline], the inhibition at 1 µM was not below 50%.

Consider `COc1c(-c2ccccc2Cl)cc2cnc(NC(C)C)nc2c1C(=O)N(C)OC` [Compound 71, 6-(2-Chlorophenyl)-2-isopropylamino-7-methoxy-8-(N-methoxy-N-methylaminocarbonyl)quinazoline], for which the inhibition at 1 µM was not below 50%.

As to `COc1cc2nc(NC(C)C)ncc2cc1-c1cccc(C)c1` [Compound 203, 2-Isopropylamino-7-methoxy-6-(3-methylphenyl)quinazoline], the inhibition at 1 µM is not below 50%.

On to `CC(C)Nc1ncc2cc(-c3ccccc3Cl)c(OCCCC(=O)O)cc2n1` [Compound 31, 7-(3-Carboxypropyloxy)-6-(2-chlorophenyl)-2-isopropylaminoquinazoline], for which the inhibition at 1 µM was not below 50%.

For the compound `Cc1ccc(C(=O)NC2CC2)cc1-c1ccc2nc(NC(C)C)ncc2c1` [Compound 268, 6-(5-Cyclopropylcarbamoyl-2-methylphenyl)-2-(isopropylamino)quinazoline], the inhibition at 1 µM is not below 50%.

For `CC(C)Nc1ncc2cc(-c3cc(NC(=O)c4ccc[nH]4)ccc3O)ccc2n1` [Compound 267, 6-{2-Hydroxy-5-[(1H-pyrrol-2-yl)carbonylamino]phenyl}-2-(isopropylamino)quinazoline], the inhibition at 1 µM is not below 50%.

As for `COc1cc2nc(NC(C)C)ncc2cc1-c1cccc(O)c1` [Compound 196, 6-(3-Hydroxyphenyl)-2-isopropylamino-7-methoxyquinazoline], the inhibition at 1 µM is not below 50%.

`COc1ccc(NC(C)=O)cc1-c1cc2cnc(NC(C)C)nc2cc1OC` [Compound 234, 6-(5-Acetylamino-2-methoxyphenyl)-2-isopropylamino-7-methoxyquinazoline]: the inhibition at 1 µM was not below 50%.

For the compound `C=Cc1c(OC)c(-c2ccccc2Cl)cc2cnc(NC(C)C)nc12` [Compound 76, 6-(2-Chlorophenyl)-2-isopropylamino-7-methoxy-8-vinylquinazoline], the inhibition at 1 µM is not below 50%.

On to `COC(=O)c1c(OC)c(-c2ccccc2Cl)cc2cnc(NC(C)C)nc12` [Compound 61, 6-(2-Chlorophenyl)-2-isopropylamino-7-methoxy-8-(methoxycarbonyl)quinazoline], for which the inhibition at 1 µM is not below 50%.

For `COc1cccc(C(=O)c2cc3cnc(NC(C)C)nc3cc2O)c1` [Compound 121, 7-Hydroxy-2-isopropylamino-6-(3-methoxybenzoyl)quinazoline], the inhibition at 1 µM was not below 50%.

On to `CC[C@@H](C)Nc1ncc2cc(-c3ccccc3C)c(OC)cc2n1` [Compound 166, (R)-2-(sec-Butylamino)-7-methoxy-6-(2-methylphenyl)quinazoline], for which the inhibition at 1 µM is not below 50%.

Take `Cc1ccccc1-c1cc2cnc(NC(C)C)nc2cc1O` [Compound 245, 7-Hydroxy-2-isopropylamino-6-(2-methylphenyl)quinazoline]: the inhibition at 1 µM was not below 50%.

Regarding `COc1cc2nc(NC(C)C)ncc2cc1-c1ccccc1C(F)(F)F` [Compound 192, 2-Isopropylamino-7-methoxy-6-(2-trifluoromethylphenyl)quinazoline], the inhibition at 1 µM was not below 50%.

As to `COc1c(-c2ccccc2Cl)cc2cnc(NC(C)C)nc2c1Br` [Compound 60, 8-Bromo-6-(2-chlorophenyl)-2-isopropylamino-7-methoxyquinazoline], the inhibition at 1 µM is not below 50%.

Take `COCOc1c(-c2ccccc2Cl)cc2cnc(NC(C)C)nc2c1-c1cccc(C(=O)O)c1` [Compound 93, 8-(3-Carboxyphenyl)-6-(2-chlorophenyl)-2-isopropylamino-7-(methoxymethyloxy)quinazoline]: the inhibition at 1 µM is not below 50%.

As to `CC(=O)c1c(OCC(=O)O)c(-c2ccccc2Cl)cc2cnc(NC(C)C)nc12` [Compound 80, 8-Acetyl-7-(carboxymethyloxy)-6-(2-chlorophenyl)-2-(isopropylamino)quinazoline], the inhibition at 1 µM was not below 50%.

`NC(=O)N1CCC(Nc2ncc3cc(-c4ccccc4Cl)c(O)cc3n2)CC1` [Compound 157, 2-(1-Carbamoylpiperidin-4-ylamino)-6-(2-chlorophenyl)-7-hydroxyquinazoline]: the inhibition at 1 µM was not below 50%.

`COc1cc2nc(Nc3c(F)cccc3F)ncc2cc1-c1ccccc1Cl` [Compound 16, 6-(2-Chlorophenyl)-2-(2,6-difluoroanilino)-7-methoxyquinazoline]: the inhibition at 1 µM is not below 50%.

For `CC(C)Nc1ncc2cc(C(=O)c3cc(F)cc(F)c3)c(O)cc2n1` [Compound 134, 6-(3,5-Difluorobenzoyl)-7-hydroxy-2-(isopropylamino)quinazoline], the inhibition at 1 µM is not below 50%.

As for `Cc1cc2nc(NC(C)C)ncc2cc1-c1cc(NC(=O)c2ccc[nH]2)ccc1CO` [Compound 281, 6-{2-Hydroxymethyl-5-[(1H-pyrrol-2-yl)carbonylamino]phenyl}-2-isopropylamino-7-methylquinazoline], the inhibition at 1 µM is not below 50%.

As for `CC[C@H](C)Nc1ncc2cc(-c3cc(NC(C)=O)ccc3CO)ccc2n1` [Compound 272, (S)-6-[5-acetylamino-2-(hydroxymethyl)phenyl]-2-(sec-butylamino)quinazoline], the inhibition at 1 µM was not below 50%.

`Cc1ccccc1-c1cc2cnc(N[C@@H](C)C3CCCCC3)nc2cc1O` [Compound 172, (S)-2-(1-cyclohexylethylamino)-7-hydroxy-6-(2-methylphenyl)quinazoline]: the inhibition at 1 µM was not below 50%.

Consider `COc1cc2nc(NC3CCN(S(C)(=O)=O)CC3)ncc2cc1-c1ccccc1O` [Compound 241, 6-(2-Hydroxyphenyl)-7-methoxy-2-[1-(methylsulfonyl)piperidin-4-ylamino]quinazoline], for which the inhibition at 1 µM is not below 50%.

As for `CC(C)Nc1ncc2cc(C(=O)c3cccc(Cl)c3)c(O)cc2n1` [Compound 120, 6-(3-Chlorobenzoyl)-7-hydroxy-2-(isopropylamino)quinazoline], the inhibition at 1 µM was not below 50%.

On to `COc1c(-c2ccccc2Cl)cc2cnc(NC(C)C)nc2c1C(=O)N1CCCCC1` [Compound 67, 6-(2-Chlorophenyl)-2-isopropylamino-7-methoxy-8-(piperidinocarbonyl)quinazoline], for which the inhibition at 1 µM is not below 50%.

As to `COc1cc2nc(NC(C)C)ncc2cc1-c1cccc(NC(=O)c2ccc[nH]2)c1` [Compound 209, 2-Isopropylamino-7-methoxy-6-{3-[(1H-pyrrol-2-yl)carbonylamino]phenyl}quinazoline], the inhibition at 1 µM is not below 50%.

On to `COc1cc2nc(NC3CCNCC3)ncc2cc1-c1ccccc1Cl` [Compound 152, 6-(2-Chlorophenyl)-7-methoxy-2-(piperidin-4-ylamino)quinazoline], for which the inhibition at 1 µM was not below 50%.

As for `COc1c(-c2ccccc2Cl)cc2cnc(NC(C)C)nc2c1C(C)=O` [Compound 77, 8-Acetyl-6-(2-chlorophenyl)-2-isopropylamino-7-methoxyquinazoline], the inhibition at 1 µM was not below 50%.

For `CCOC(=O)COc1cc2nc(NC(C)C)ncc2cc1-c1ccccc1Cl` [Compound 32, 6-(2-Chlorophenyl)-7-(ethoxycarbonylmethyloxy)-2-isopropylaminoquinazoline], the inhibition at 1 µM is not below 50%.

Take `CC(C)Nc1ncc2cc(C(=O)c3ccc(F)c(Cl)c3)c(O)cc2n1` [Compound 127, 6-(3-Chloro-4-fluorobenzoyl)-7-hydroxy-2-(isopropylamino)quinazoline]: the inhibition at 1 µM was not below 50%.

Regarding `Cc1cccc(C)c1Nc1ncc2cc(C(=O)c3ccccc3)c(O)cc2n1` [Compound 140, 6-Benzoyl-2-(2,6-dimethylanilino)-7-hydroxyquinazoline], the inhibition at 1 µM is not below 50%.

Turning to `COc1cc2nc(Nc3c(Cl)cccc3Cl)ncc2cc1-c1ccccc1Cl` [Compound 17, 6-(2-Chlorophenyl)-2-(2,6-dichloroanilino)-7-methoxyquinazoline], the inhibition at 1 µM is not below 50%.

Consider `CC(C)Nc1ncc2cc(-c3ccccc3Cl)c(O)c(-c3ccc(CC(=O)O)cc3)c2n1` [Compound 95, 8-[4-(Carboxymethyl)phenyl]-6-(2-chlorophenyl)-7-hydroxy-2-(isopropylamino)quinazoline], for which the inhibition at 1 µM was not below 50%.

Regarding `COc1c(-c2ccc(F)cc2F)cc2cnc(NC(C)C)nc2c1Br` [Compound 82, 8-Bromo-6-(2,4-difluorophenyl)-2-isopropylamino-7-methoxyquinazoline], the inhibition at 1 µM is not below 50%.

`CC[C@H](C)Nc1ncc2cc(-c3cc(NC(=O)c4ccc[nH]4)ccc3CO)ccc2n1` [Compound 273, (S)-2-(sec-Butylamino)-6-{2-hydroxymethyl-5-[(1H-pyrrol-2-yl)carbonylamino]phenyl}quinazoline]: the inhibition at 1 µM is not below 50%.
